This note sets out measurements from patent EP0640600A1, “Heterocyclylbenzoheterocycles” (BAYER AG, priority 1993, dated 1995).

One data set has as its system Unkräuter. Put plainly: Post-emergence test, herbicidal action on weeds. In kind it is in vivo. The settings on record: test plants 5 - 15 cm high sprayed, damage rated after three weeks vs untreated control, application rate not given. An excerpt:
(§1) Lösungsmittel: 5 Gewichtsteile Aceton Emulgator: 1 Gewichtsteil Alkylarylpolyglykolether Zur Herstellung einer zweckmäßigen Wirkstoffzubereitung vermischt man 1 Gewichtsteil Wirkstoff mit der angegebenen Menge Lösungsmittel, gibt die angegebene Menge Emulgator zu und verdünnt das Konzentrat mit Wasser auf die gewünschte Konzentration.
(§2) Mit der Wirkstoffzubereitung spritzt man Testpflanzen, welche eine Höhe von 5 - 15 cm haben so, daß die jeweils gewünschten Wirkstoffmengen pro Flächeneinheit ausgebracht werden. Nach drei Wochen wird der Schädigungsgrad der Pflanzen bonitiert in % Schädigung im Vergleich zur Entwicklung der unbehandelten Kontrolle.

In data set [1] the test system is Kulturpflanzen, wie z.B. Weizen und Soja. To be noted: in vivo.
Excerpt: as §1, §2

SMILES strings stand for the structures.

For `CCCN1C(=O)COc2cc(F)c(-n3c(=O)nc(OCC)n(C)c3=O)cc21` [Beispiel 2, 3-(7-Fluor-3-oxo-4-propyl-1,4-benzoxazin-6-yl)-6-ethoxy-1-methyl-(1H,3H)-1,3,5-triazin-2,4-dion], the “Wirkung gegen Unkräuter” value with Unkräuter is recorded as “starke Wirkung”. In addition, the “Verträglichkeit gegenüber Kulturpflanzen, wie z.B. Weizen und Soja” value in data set [1] is recorded as “teilweise guter Verträglichkeit”.
